Legend:
Assay in all cases: fitness (endpoint OD595 vs no drug) (fraction); higher = more growth
[1] = test system: S. aureus Newman
Summary of the method: (§1)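 With the first reading as background, OD595 was measured every 30 min for 14 h in 384-well plates kept at 37 °C and inoculated at OD595 0.01. TSB, LB Lennox or CY was the medium. Fitness is the optical density at the transition into stationary phase divided by the robust mean of no-drug control wells, with a cap of 1.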

[2] = test system: B. subtilis 168
Summary of the method: as §1

[3] = test system: S. pneumoniae D39V
Summary of the method: as §1
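Note: OD595 on entry to stationary phase over no-drug wells; at most 1.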

COc1cccc2c1C(=O)c1c(O)c3c(c(O)c1C2=O)C[C@@](O)(C(=O)CO)C[C@@H]3O[C@H]1C[C@H](N)[C@H](O)[C@H](C)O1 [Doxorubicin] + CC1=C(C(=O)O)N2C(=O)[C@@H](NC(=O)[C@H](N)c3ccccc3)[C@H]2SC1 [Cephalexin]
fitness
Conditions	first compound 0.25 µg/mL	first compound 0.5 µg/mL	first compound 0.625 µg/mL	first compound 1 µg/mL	first compound 1.25 µg/mL	first compound 2.5 µg/mL
[1], partner 0.25 µg/mL	–	–	0.771	–	0.824	0.744
[1], partner 0.5 µg/mL	–	–	0.844	–	0.834	0.758
[1], partner 1 µg/mL	–	–	0.823	–	0.861	0.83
[2], partner 0.125 µg/mL	–	–	0.917	–	0.897	0.733
[2], partner 0.25 µg/mL	–	–	0.964	–	0.89	0.68
[2], partner 0.5 µg/mL	–	–	0.969	–	0.941	0.655
[3], partner 2 µg/mL	0.0496	0.0845	–	0.105	–	–
[3], partner 4 µg/mL	0.0361	0.0467	–	0.0242	–	–

fitness, one replicate
Conditions	first compound 0.25 µg/mL	first compound 0.5 µg/mL	first compound 0.625 µg/mL	first compound 1 µg/mL	first compound 1.25 µg/mL	first compound 2.5 µg/mL
[2], partner 1 µg/mL	–	–	≥ 1	–	0.98	0.703
[3], partner 0.125 µg/mL	0.866	0.98	–	0.905	–	–
[3], partner 0.25 µg/mL	0.862	0.876	–	0.861	–	–
[3], partner 0.5 µg/mL	0.878	0.872	–	0.898	–	–

C[C@@H]1O[C@@H]1P(=O)(O)O [Fosfomycin] + CC1(C)S[C@@H]2[C@H](NC(=O)Cc3ccccc3)C(=O)N2[C@H]1C(=O)O [Penicillin G]
fitness, [1]
Conditions	first compound 0.781 µg/mL	first compound 1.562 µg/mL	first compound 3.124 µg/mL
partner 0.0195 µg/mL	0.582	0.498	0.167
partner 0.039 µg/mL	0.583	0.516	0.171
partner 0.078 µg/mL	0.54	0.508	0.153

C[C@@H]1O[C@@H]1P(=O)(O)O [Fosfomycin] + CC1=C(C(=O)O)N2C(=O)[C@@H](NC(=O)[C@H](N)c3ccccc3)[C@H]2SC1 [Cephalexin]
Conditions	fitness
[1], first compound 0.781 µg/mL, partner 0.25 µg/mL	0.677
[1], first compound 0.781 µg/mL, partner 0.5 µg/mL	0.662
[1], first compound 0.781 µg/mL, partner 1 µg/mL	0.685
[1], first compound 1.562 µg/mL, partner 0.25 µg/mL	0.604
[1], first compound 1.562 µg/mL, partner 0.5 µg/mL	0.561
[1], first compound 1.562 µg/mL, partner 1 µg/mL	0.616
[1], first compound 3.124 µg/mL, partner 0.25 µg/mL	0.309
[1], first compound 3.124 µg/mL, partner 0.5 µg/mL	0.286
[1], first compound 3.124 µg/mL, partner 1 µg/mL	0.284
[2], first compound 1.562 µg/mL, partner 0.125 µg/mL	0.66
[2], first compound 1.562 µg/mL, partner 0.25 µg/mL	0.776
[2], first compound 1.562 µg/mL, partner 0.5 µg/mL	0.774
[2], first compound 3.124 µg/mL, partner 0.125 µg/mL	0.573
[2], first compound 3.124 µg/mL, partner 0.25 µg/mL	0.656
[2], first compound 3.124 µg/mL, partner 0.5 µg/mL	0.611
[2], first compound 6.248 µg/mL, partner 0.125 µg/mL	0.404
[2], first compound 6.248 µg/mL, partner 0.25 µg/mL	0.396
[2], first compound 6.248 µg/mL, partner 0.5 µg/mL	0.373
[3], first compound 1.25 µg/mL, partner 1 µg/mL	0.768
[3], first compound 1.25 µg/mL, partner 2 µg/mL	0.212
[3], first compound 1.25 µg/mL, partner 4 µg/mL	0.0339
[3], first compound 2.5 µg/mL, partner 2 µg/mL	0.191
[3], first compound 2.5 µg/mL, partner 4 µg/mL	0.0402
[3], first compound 5 µg/mL, partner 2 µg/mL	0.0752
[3], first compound 5 µg/mL, partner 4 µg/mL	0.0499

fitness, one replicate
Conditions	first compound 1.25 µg/mL	first compound 1.562 µg/mL	first compound 2.5 µg/mL	first compound 3.124 µg/mL	first compound 5 µg/mL	first compound 6.248 µg/mL
[2], partner 1 µg/mL	–	0.797	–	0.673	–	0.542
[3], partner 0.125 µg/mL	0.937	–	0.879	–	0.713	–
[3], partner 0.25 µg/mL	0.933	–	0.847	–	0.762	–
[3], partner 0.5 µg/mL	0.899	–	0.847	–	0.751	–

Cc1ncc([N+](=O)[O-])n1CCO [Metronidazole] + CC1(C)S[C@@H]2[C@H](NC(=O)Cc3ccccc3)C(=O)N2[C@H]1C(=O)O [Penicillin G]
fitness, [1]
Conditions	first compound 0.625 µg/mL	first compound 0.781 µg/mL	first compound 1.25 µg/mL	first compound 1.562 µg/mL	first compound 2.5 µg/mL	first compound 3.124 µg/mL
partner 0.0195 µg/mL	0.924	0.836	0.799	0.85	0.826	0.829
partner 0.039 µg/mL	0.9	0.975	0.882	0.932	0.913	0.947
partner 0.078 µg/mL	0.812	0.982	0.858	0.959	0.807	0.946

CC1(C)S[C@@H]2[C@H](NC(=O)Cc3ccccc3)C(=O)N2[C@H]1C(=O)O [Penicillin G] + CC1=C\[C@@H](O)CC(=O)Cc2nc(co2)C(=O)N2CCC=C2C(=O)O[C@H](C(C)C)[C@H](C)/C=C/C(=O)NC\C=C\1 [Virginiamycin M1]
fitness, [1]
Conditions	first compound 0.0195 µg/mL	first compound 0.039 µg/mL	first compound 0.078 µg/mL
partner 0.0625 µg/mL	0.896	0.929	0.917
partner 0.125 µg/mL	0.935	0.924	0.955
partner 0.25 µg/mL	0.914	0.913	0.925

fitness, [1], one replicate
Conditions	first compound 0.0195 µg/mL	first compound 0.039 µg/mL	first compound 0.078 µg/mL
partner 0.5 µg/mL	0.834	0.766	0.788
partner 1 µg/mL	0.916	0.877	0.856
partner 2 µg/mL	0.807	0.741	0.717

CC1(C)S[C@@H]2[C@H](NC(=O)Cc3ccccc3)C(=O)N2[C@H]1C(=O)O [Penicillin G] + CCCCCCCCCC(=O)N[C@@H]1[C@H]([C@@H]([C@H](O[C@H]1OC2=C3C=C4C=C2OC5=C(C=C(C=C5)[C@H]([C@H]6C(=O)N[C@@H](C7=C(C(=CC(=C7)O)OC8[C@H]([C@H]([C@@H]([C@H](O8)CO)O)O)O)C9=C(C=CC(=C9)[C@H](C(=O)N6)NC(=O)[C@@H]4NC(=O)[C@@H]1C2=CC(=CC(=C2)OC2=C(C=CC(=C2)[C@H](C(=O)N[C@H](CC2=CC(=C(O3)C=C2)Cl)C(=O)N1)N)O)O)O)C(=O)O)O[C@H]1[C@@H]([C@H]([C@@H]([C@H](O1)CO)O)O)NC(=O)C)Cl)CO)O)O [Teicoplanin]
fitness, [1], main component drawn
Conditions	first compound 0.0195 µg/mL	first compound 0.039 µg/mL	first compound 0.078 µg/mL
partner 0.1562 µg/mL	0.983	≥ 1	≥ 1
partner 0.3125 µg/mL	0.955	0.924	0.921
partner 0.625 µg/mL	0.803	0.824	0.776

fitness, [1], one replicate, main component drawn
Conditions	first compound 0.0195 µg/mL	first compound 0.039 µg/mL	first compound 0.078 µg/mL
partner 0.62 µg/mL	0.697	0.741	0.715
partner 1.24 µg/mL	0.702	0.732	0.711
partner 2.48 µg/mL	0.377	0.393	0.284

— the supplement of paper PMC10627819
